The supplement of paper PMC11451515

What was measured:
Conditions in all cases: 48 h
NOMO1 [1] = test: AUC of viability dose-response curve (% viability x log10 dose units); higher = less sensitive
In short: (§1)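 Viability of medium-adapted leukemia cells was measured by CellTiter-Glo One luminescence after 48 h at 37°C with library compounds in DMSO. Doses were 11 threefold steps from 47 μM to 0.79 nM, in 1536-well plates at 500 or 1000 cells/well. Signals were normalised per plate to DMSO and cell-free wells and fitted with a four-parameter log-logistic model on log10 dose. Area under the curve was integrated by trapezoidal rule, with curves exceeding full viability scaled and failed quality-control curves removed.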

P12-Ichikawa [2] = test: as above
In short: as §1

SEM cells [3] = test: as above
In short: as §1

SEM cells [4] = test: cell viability relative to DMSO control; higher = less cytotoxic
In short: (§2)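 Cells were incubated for 48 h at 37°C before CellTiter-Glo One luminescence was read. The cells were NOMO1 or SEM (500 cells/well) or P12-Ichikawa (1000 cells/well) leukemia cells, adapted for at least four passages in each medium and seeded in 1536-well plates (5 μl). Dosing used library compounds in DMSO applied by pin over 11 threefold points, 47 μM to 0.79 nM. Viability is the per-plate percentage of DMSO wells, with cell-free wells as background.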

NOMO1 [5] = test: as above
In short: as §2

P12-Ichikawa [6] = test: as above
In short: as §2

O=c1cc(-c2ccc(O)c(O)c2)oc2cc(O)cc(O)c12
AUC of viability dose-response curve
Conditions | NOMO1 [1] | P12-Ichikawa [2] | SEM cells [3]
HPLM + 10% dialyzed FBS | 458 | 473 | 449
RPMI 5 mM glucose + 10% FBS | 461 | 464 | 454
RPMI 5 mM glucose + 10% dialyzed FBS | 461 | 467 | 459

SEM cells [4], HPLM + 10% dialyzed FBS
Conditions | cell viability [%]
0.000781 µM | 107
0.00234 µM | 113
0.00702 µM | 126
0.0211 µM | 127
0.0632 µM | 134
0.19 µM | 134
0.569 µM | 142
1.71 µM | 152
5.12 µM | 156
15.4 µM | 129
46.1 µM | 129

CC(C)(O)CC(=O)NCCn1ccc2ncnc(Nc3ccc(Oc4cccc(C(F)(F)F)c4)c(Cl)c3)c21
AUC of viability dose-response curve
Conditions | NOMO1 [1] | P12-Ichikawa [2] | SEM cells [3]
HPLM + 10% dialyzed FBS | 415 | 425 | 436
RPMI 5 mM glucose + 10% FBS | 450 | 437 | 415
RPMI 5 mM glucose + 10% dialyzed FBS | 433 | 436 | 432

cell viability [%]
Conditions | NOMO1 [5] | P12-Ichikawa [6] | SEM cells [4]
HPLM + 10% dialyzed FBS, 0.000781 µM | 96.8 | 120 | 106
HPLM + 10% dialyzed FBS, 0.00234 µM | 109 | 115 | 110
HPLM + 10% dialyzed FBS, 0.00702 µM | 107 | 116 | 102
HPLM + 10% dialyzed FBS, 0.0211 µM | 120 | 112 | 103
HPLM + 10% dialyzed FBS, 0.0632 µM | 89.5 | 111 | 112
HPLM + 10% dialyzed FBS, 0.19 µM | 98.9 | 109 | 105
HPLM + 10% dialyzed FBS, 0.569 µM | 107 | 108 | 103
HPLM + 10% dialyzed FBS, 1.71 µM | 85.5 | 102 | 96.5
HPLM + 10% dialyzed FBS, 5.12 µM | 80.5 | 87.2 | 94.6
HPLM + 10% dialyzed FBS, 15.4 µM | 54.7 | 69.5 | 71.6
HPLM + 10% dialyzed FBS, 46.1 µM | 33.9 | 60.7 | 32.9
RPMI 5 mM glucose + 10% FBS, 0.000781 µM | 95.1 | 110 | –
RPMI 5 mM glucose + 10% FBS, 0.00234 µM | 109 | 107 | –
RPMI 5 mM glucose + 10% FBS, 0.00702 µM | 103 | 121 | –
RPMI 5 mM glucose + 10% FBS, 0.0211 µM | 105 | 114 | –
RPMI 5 mM glucose + 10% FBS, 0.0632 µM | 101 | 121 | –
RPMI 5 mM glucose + 10% FBS, 0.19 µM | 97.9 | 105 | –
RPMI 5 mM glucose + 10% FBS, 0.569 µM | 111 | 107 | –
RPMI 5 mM glucose + 10% FBS, 1.71 µM | 95.3 | 111 | –
RPMI 5 mM glucose + 10% FBS, 5.12 µM | 96.8 | 93.3 | –
RPMI 5 mM glucose + 10% FBS, 15.4 µM | 79 | 75.6 | –
RPMI 5 mM glucose + 10% FBS, 46.1 µM | 53.6 | 52 | –
RPMI 5 mM glucose + 10% dialyzed FBS, 0.000781 µM | 106 | 104 | 105
RPMI 5 mM glucose + 10% dialyzed FBS, 0.00234 µM | 100 | 113 | 88
RPMI 5 mM glucose + 10% dialyzed FBS, 0.00702 µM | 95.3 | 117 | 102
RPMI 5 mM glucose + 10% dialyzed FBS, 0.0211 µM | 108 | 109 | 103
RPMI 5 mM glucose + 10% dialyzed FBS, 0.0632 µM | 99.8 | 115 | 109
RPMI 5 mM glucose + 10% dialyzed FBS, 0.19 µM | 109 | 113 | 107
RPMI 5 mM glucose + 10% dialyzed FBS, 0.569 µM | 107 | 110 | 100
RPMI 5 mM glucose + 10% dialyzed FBS, 1.71 µM | 97.1 | 106 | 101
RPMI 5 mM glucose + 10% dialyzed FBS, 5.12 µM | 81.9 | 95.8 | 90.4
RPMI 5 mM glucose + 10% dialyzed FBS, 15.4 µM | 67.8 | 69.1 | 58.5
RPMI 5 mM glucose + 10% dialyzed FBS, 46.1 µM | 44.1 | 47.4 | 23.6

O=C(N[C@H](CO)[C@H](O)c1ccc([N+](=O)[O-])cc1)C(Cl)Cl
AUC of viability dose-response curve
Conditions | NOMO1 [1] | P12-Ichikawa [2] | SEM cells [3]
HPLM + 10% dialyzed FBS | 477 | 471 | 474
RPMI 5 mM glucose + 10% FBS | 467 | 466 | 475
RPMI 5 mM glucose + 10% dialyzed FBS | 467 | 462 | 475

SEM cells [4], HPLM + 10% dialyzed FBS
Conditions | cell viability [%]
0.000781 µM | 115
0.00234 µM | 119
0.00702 µM | 125
0.0211 µM | 121
0.0632 µM | 126
0.19 µM | 125
0.569 µM | 128
1.71 µM | 132
5.12 µM | 128
15.4 µM | 118
46.1 µM | 113

CC(C)CN(C[C@@H](O)[C@H](Cc1ccccc1)NC(=O)O[C@H]1CCOC1)[S+](=O)([O-])c1ccc(N)cc1
AUC of viability dose-response curve
Conditions | NOMO1 [1] | P12-Ichikawa [2] | SEM cells [3]
HPLM + 10% dialyzed FBS | 440 | 396 | 410
RPMI 5 mM glucose + 10% FBS | 453 | 382 | 369
RPMI 5 mM glucose + 10% dialyzed FBS | 443 | 362 | 365

Cc1ccccc1C(=O)Nc1ccc(C(=O)N2CCCC(O)c3cc(Cl)ccc32)c(C)c1 (stereo unspecified)
AUC of viability dose-response curve
Conditions | NOMO1 [1] | P12-Ichikawa [2] | SEM cells [3]
HPLM + 10% dialyzed FBS | 452 | 461 | 460
RPMI 5 mM glucose + 10% FBS | 471 | 462 | 455
RPMI 5 mM glucose + 10% dialyzed FBS | 471 | 469 | 446

cell viability [%]
Conditions | NOMO1 [5] | P12-Ichikawa [6] | SEM cells [4]
HPLM + 10% dialyzed FBS, 0.000781 µM | 129 | 116 | 109
HPLM + 10% dialyzed FBS, 0.00234 µM | 125 | 117 | 97.2
HPLM + 10% dialyzed FBS, 0.00702 µM | 123 | 120 | 97.9
HPLM + 10% dialyzed FBS, 0.0211 µM | 141 | 122 | 112
HPLM + 10% dialyzed FBS, 0.0632 µM | 139 | 127 | 113
HPLM + 10% dialyzed FBS, 0.19 µM | 121 | 135 | 117
HPLM + 10% dialyzed FBS, 0.569 µM | 143 | 131 | 131
HPLM + 10% dialyzed FBS, 1.71 µM | 163 | 136 | 42.2
HPLM + 10% dialyzed FBS, 5.12 µM | 147 | 129 | 108
HPLM + 10% dialyzed FBS, 15.4 µM | 125 | 127 | 127
HPLM + 10% dialyzed FBS, 46.1 µM | 137 | 124 | 121
RPMI 5 mM glucose + 10% FBS, 0.000781 µM | – | – | 122
RPMI 5 mM glucose + 10% FBS, 0.00234 µM | – | – | 109
RPMI 5 mM glucose + 10% FBS, 0.00702 µM | – | – | 123
RPMI 5 mM glucose + 10% FBS, 0.0211 µM | – | – | 136
RPMI 5 mM glucose + 10% FBS, 0.0632 µM | – | – | 141
RPMI 5 mM glucose + 10% FBS, 0.19 µM | – | – | 127
RPMI 5 mM glucose + 10% FBS, 0.569 µM | – | – | 137
RPMI 5 mM glucose + 10% FBS, 1.71 µM | – | – | 32.9
RPMI 5 mM glucose + 10% FBS, 5.12 µM | – | – | 140
RPMI 5 mM glucose + 10% FBS, 15.4 µM | – | – | 151
RPMI 5 mM glucose + 10% FBS, 46.1 µM | – | – | 146
RPMI 5 mM glucose + 10% dialyzed FBS, 0.000781 µM | – | – | 103
RPMI 5 mM glucose + 10% dialyzed FBS, 0.00234 µM | – | – | 116
RPMI 5 mM glucose + 10% dialyzed FBS, 0.00702 µM | – | – | 112
RPMI 5 mM glucose + 10% dialyzed FBS, 0.0211 µM | – | – | 140
RPMI 5 mM glucose + 10% dialyzed FBS, 0.0632 µM | – | – | 132
RPMI 5 mM glucose + 10% dialyzed FBS, 0.19 µM | – | – | 136
RPMI 5 mM glucose + 10% dialyzed FBS, 0.569 µM | – | – | 149
RPMI 5 mM glucose + 10% dialyzed FBS, 1.71 µM | – | – | 56.3
RPMI 5 mM glucose + 10% dialyzed FBS, 5.12 µM | – | – | 146
RPMI 5 mM glucose + 10% dialyzed FBS, 15.4 µM | – | – | 140
RPMI 5 mM glucose + 10% dialyzed FBS, 46.1 µM | – | – | 133

CCCN1CCO[C@@H]2c3cc(O)ccc3OC[C@H]21
AUC of viability dose-response curve
Conditions | NOMO1 [1] | P12-Ichikawa [2] | SEM cells [3]
HPLM + 10% dialyzed FBS | 451 | 448 | 406
RPMI 5 mM glucose + 10% FBS | 456 | 446 | 424
RPMI 5 mM glucose + 10% dialyzed FBS | 456 | 441 | 433

cell viability [%], HPLM + 10% dialyzed FBS
Conditions | P12-Ichikawa [6] | SEM cells [4]
0.000781 µM | 125 | 120
0.00234 µM | 123 | 123
0.00702 µM | 128 | 135
0.0211 µM | 120 | 112
0.0632 µM | 120 | 122
0.19 µM | 118 | 118
0.569 µM | 113 | 105
1.71 µM | 114 | 103
5.12 µM | 114 | 68.4
15.4 µM | 101 | 99.7
46.1 µM | 12.1 | 48.1
